In data set [1] the test system is wild-type mouse bone marrow. Kind of data set: Hematopoietic colonies from bone marrow treated ex vivo. In kind it is cell-based. Particulars: 1 uM, ex vivo on ice 2 hours. The text has this: Treated marrow is again then plated into methylcellulose for counting of hematopoietic colonies.
Data set [2] concerns 15-PGDH luciferase fusion construct in V9m reporter cell line. Kind of data set: 15-PGDH-luciferase fusion gene reporter induction, V9m cells. The data set is classed as cell-based. Particulars: % induction of luciferase activity over basal level.
The subject of data set [3] is 15-PGDH luciferase fusion construct in LS174T reporter cell line. Nature of the data set: 15-PGDH-luciferase fusion gene reporter induction, LS174T cells. In kind it is cell-based. The following applies: Homo sapiens.
Data set [4] concerns 15-PGDH luciferase fusion construct in Vaco503 reporter cell line. Nature of the data set: 15-PGDH-luciferase fusion gene reporter induction, V503 cells. The following applies: read-out: V503-3H9-7 reporter activity, % ([…]), V503 reporter cells, […] compound, % induction of luciferase activity over basal level. The data set is classed as cell-based.
Data set [5] concerns A549 cells. Kind of data set: PGE2 levels in the medium of IL1-beta stimulated A549 cells.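 As to all read-outs here: PGE2 in the collected culture medium quantified by enzyme immunoassay (ELISA), with data drawn from three independent experiments.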 Particulars: for Decrease PGE-2 (IL-1beta-A549, %): media of IL-1beta stimulated A549 cells. The data set is classed as cell-based.
In data set [6] the test system is A549 cells. Kind of data set: Cellular toxicity on A549 cells (CellTiter-Glo). The data set is classed as cell-based. Also noted: Decrease Cell viability in A549 cell (%): concentration or dose not given beside the values. On the technique in general: Cellular ATP, detected with luciferase, serves as a proxy for viable cell number.
The nature of data set [7]: Metabolic stability with murine liver S9. The data set is classed as in vitro ADME. The following applies: for half-life: mouse, liver S9 fraction, Murine S9 fraction, Phase I cofactors, 0-240 minutes. The method, then:
SW054384 (2 mM in DMSO) was incubated with Murine S9 (Lot KWB) fraction and Phase I (NADPH Regenerating System) cofactors for 0-240 minutes. Reactions were quenched with a 1 mL (1:1) of MeOH/(+)IS/0.2% Formic Acid, vortexed for 15 seconds, incubated at RT for 10 minutes and spun for 5 minutes at 2400 rpms. […] Supernatant (800 μL) was transferred to an HPLC vial (w/out insert) and analyzed by HPLC/MS. A: dH2O+0.1% FA B: MeOH+0.1% FA
SW125991 (2 mM in DMSO) was incubated with Murine S9 (Lot KWB) fraction and Phase I (NADPH Regenerating System) cofactors for 0-240 minutes. Reactions were quenched with 1 mL (1:1) of methanol containing 0.2% formic acid and 100 ng/ml IS (IS final conc.=50 ng/ml). Samples were vortexed for 15 seconds, incubated at RT for 10 minutes and spun for 5 minutes at 2400 rpm. […] Supernatant (800 μL) was transferred to an HPLC vial (w/out insert). Analyzed by Qtrap 3200 mass spectrometer.

For data set [8], the target named is T1, 15-PGDH protein (Homo sapiens (Human), UniProt P15428). Nature of the data set: Inhibition of enzymatic activity of recombinant 15-PGDH in vitro (tritium transfer from PGE2 or NADH fluorescence). The data set is classed as biochemical. The following applies: for IC50: read-out: IC50.
T1 sequence (P15428 whole entry, the tested form may be a part): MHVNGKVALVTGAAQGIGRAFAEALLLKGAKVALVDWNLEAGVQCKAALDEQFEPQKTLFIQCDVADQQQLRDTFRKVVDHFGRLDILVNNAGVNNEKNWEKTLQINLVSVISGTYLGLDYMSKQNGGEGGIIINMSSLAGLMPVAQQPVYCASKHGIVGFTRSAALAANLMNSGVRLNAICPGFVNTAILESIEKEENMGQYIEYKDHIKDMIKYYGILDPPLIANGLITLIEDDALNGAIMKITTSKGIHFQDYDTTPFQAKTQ
The subject of data set [9] is 15-PGDH-luciferase fusion reporter in V9m, LS174T and V503 cells. Nature of the data set: 15-PGDH-luciferase fusion gene reporter induction, stated for the three cell line backgrounds together. The data set is classed as cell-based. Particulars: FIG. 1.
The target in data set [10] is T1, 15-PGDH protein. Nature of the data set: Shift of melting temperature of recombinant 15-PGDH (SYPRO Orange). The data set is classed as binding. The following applies: FIG. 14.
Data set [11] has as its target T1, 15-PGDH protein. Kind of data set: 15-PGDH protein levels in treated cells (western blot, immuno-fluorescence). The data set is classed as cell-based. Particulars: […] compound for 48 hours; colon cell lines. In general terms: Immunoblotting shows a protein as a band on a membrane.
In another data set the test system is 15-PGDH mRNA. Kind of data set: 15-PGDH mRNA levels by real-time PCR. The data set is classed as cell-based. Particulars: treated colon cancer cell lines. Background: Quantitative PCR measures a nucleic acid by following its amplification.
Setting [12] is: read-out: V9M-SC3 Reporter activity ([…]) (%), V9m reporter cells, […] compound, read-out: V9M-SC3 Reporter activity (2.5 μM) (%).
Where [13] appears, read: read-out: V9M-SC3 Reporter activity ([…]), %, V9m reporter cells, […] compound, read-out: V9M-SC3 Reporter activity (7.5 μM), %.
The mark [14] stands for this setting: read-out: Ls174T-SC1 reporter activity, % ([…]), LS174T reporter cells, […] compound, % induction of luciferase activity over basal level, read-out: Ls174T-SC1 reporter activity, % (2.5 μM).
The mark [15] stands for this setting: read-out: Ls174T-SC1 reporter activity, % ([…]), LS174T reporter cells, […] compound, % induction of luciferase activity over basal level, read-out: Ls174T-SC1 reporter activity, % (7.5 μM).
Setting [16] is: read-out: V503-3H9-7 reporter activity, % (2.5 μM).
Where [17] appears, read: read-out: V503-3H9-7 reporter activity, % (7.5 μM).

Read-outs that look alike come from different tables or passages of the source.

In the case of `CCCCC(C)(C)[C@H](O)/C=C/[C@H]1[C@H](O)CC(=O)[C@@H]1C/C=C\CCCC(=O)O` [dmPGE2, 16,16-dimethyl PGE2], the “increase in bone marrow derived colonies relative to SW033291” value in data set [1] was “slightly greater increase”.

As for `COc1ccc(OC)c(N(CC(=O)N2CCOCC2)S(=O)(=O)c2ccccc2)c1` [SW125991], the activation at […] stood at 77.4% in [2] (setting [12]); 74.6% in data set [2] (setting [13]); 67.3% in data set [3] (setting [14]); 83.3% in [3] (setting [15]); 161% in data set [4] (setting [16]); 149% in [4] (setting [17]). Further, in the data set on A549 cells [5], the “lowering of PGE2 levels in media” value was “show activity in lowering PGE2”. Besides, the “Decrease PGE-2 (IL-1beta-A549, %)” value in the data set on A549 cells [5] amounted to 31.33%. Also, in the data set on A549 cells [6] (24 hours), the “toxicity by CellTiter-Glo” value was “no toxicity”. Moreover, in the data set with A549 cells [6] (A549 cells), the “Decrease Cell viability in A549 cell (%)” value is on record as −2.13%. For the same molecule, in data set [7], the metabolic stability result was “marked improvement in metabolic stability”. This molecule also displayed a half-life in [7] of 3.4 h.

For `CCCCC[C@H](O)/C=C/[C@H]1[C@H](O)CC(=O)[C@@H]1C/C=C\CCCC(=O)O` [PGE2, prostaglandin E2], the “increase in bone marrow derived colonies relative to SW033291” value in data set [1] is listed as “lesser increase”.

Turning to `COc1ccc(OC)c(N(CC(=O)Nc2cccnc2)S(=O)(=O)c2ccccc2)c1` [SW054384], at 15-PGDH protein [8], the “IC50 higher than that of SW033291” value is on record as 10,000 fold. The IC50 at 15-PGDH protein [8] (15-PGDH-GST fusion protein, FIG. 11) was 5 to 50 µM; on 15-PGDH protein [8] (fluorescent based assay, FIG. 12), 11 µM; at 15-PGDH protein [8] (tritium assay, FIG. 12), 8.4 µM. The activation at […] in data set [2] (setting [12]) amounted to 116%; in [2] (setting [13]), 148%; in data set [3] (setting [14]) it was 130%; in [3] (setting [15]) it was 156%; in [4] (setting [16]), 149%; in [4] (setting [17]) it was 157%. For the same molecule, the “concentration of maximum reporter activity” value in data set [9] is 6.25 µM. Besides, in data set [9] (V9m, LS174T, V503), the “luciferase activity of cells expressing 15-PGDH luciferase fusion construct” value is listed as “increase luciferase activity”. Moreover, the “direct binding to recombinant 15-PGDH (melting temperature shift)” value on 15-PGDH protein [10] is given as “cannot be demonstrated to bind 15-PGDH”. Also, the “lowering of PGE2 levels in media” value with A549 cells [5] is on record as “show activity in lowering PGE2”. In addition, the “PGE2 levels in medium” value in the data set with A549 cells [5] (compound added 24 hours before IL1-beta, maintained 26 hours with IL1-beta) is “lower level of PGE2 produced”. For the same molecule, the “Decrease PGE-2 (IL-1beta-A549, %)” value in the data set on A549 cells [5] was determined as 41.96%. This molecule yielded a half-life in data set [7] of 0.362 h. In addition, on 15-PGDH protein [11], the “levels of 15-PGDH protein (western blot)” value is “increase levels of 15-PGDH protein”. Further, the “15-PGDH mRNA levels (real-time PCR)” value in the data set with 15-PGDH mRNA is given as “do not in general alter 15-PGDH mRNA levels”.

For orientation: half-life means the time needed for the level to fall by half in the phase considered. The term IC50 denotes the concentration needed to halve the response being measured.

Values taken from US9790233B2, “Compositions and methods of modulating 15-PGDH activity” (CASE WESTERN RESERVE UNIVERSITY, priority 2012, dated 2017).
